Laboratory results as given in ChEMBL document CHEMBL5244269, “Improving metabolic stability and removing aldehyde oxidase liability in a 5-azaquinazoline series of IRAK4 inhibitors” (Bioorg Med Chem, 2020).

Legend:
Assay type in all cases: functional
[1] = system: SUD4; experiment: Growth inhibition of human SU-DHL-4 cells at 1.7 uM incubated for 3 days in presence of 0.033 uM acalabrutinib relative to control; settings: SU-DHL-4, 72 h, time 3 day, read-out: GI
[2] = system: SUD4; experiment: Growth inhibition of human SU-DHL-4 cells at 1.7 uM incubated for 3 days in presence of 0.017 uM acalabrutinib relative to control; settings: SU-DHL-4, 72 h, time 3 day, read-out: GI
[3] = system: SUD4; experiment: Growth inhibition of human SU-DHL-4 cells at 1.7 uM incubated for 3 days in presence of 0.003 uM acalabrutinib relative to control; settings: SU-DHL-4, 72 h, time 3 day, read-out: GI
[4] = system: SUD4; experiment: Growth inhibition of human SU-DHL-4 cells at 0.33 uM incubated for 3 days in presence of 0.33 uM acalabrutinib relative to control; settings: SU-DHL-4, 72 h, time 3 day, read-out: GI
[5] = system: SUD4; experiment: Growth inhibition of human SU-DHL-4 cells at 0.33 uM incubated for 3 days in presence of 0.17 uM acalabrutinib relative to control; settings: SU-DHL-4, 72 h, time 3 day, read-out: GI
[6] = system: SUD4; experiment: Growth inhibition of human SU-DHL-4 cells at 0.33 uM incubated for 3 days in presence of 0.033 uM acalabrutinib relative to control; settings: SU-DHL-4, 72 h, time 3 day, read-out: GI
[7] = system: SUD4; experiment: Growth inhibition of human SU-DHL-4 cells at 0.33 uM incubated for 3 days in presence of 0.017 uM acalabrutinib relative to control; settings: SU-DHL-4, 72 h, time 3 day, read-out: GI
[8] = system: SUD4; experiment: Growth inhibition of human SU-DHL-4 cells at 0.17 uM incubated for 3 days in presence of 0.33 uM acalabrutinib relative to control; settings: SU-DHL-4, 72 h, time 3 day, read-out: GI
[9] = system: SUD4; experiment: Growth inhibition of human SU-DHL-4 cells at 0.33 uM incubated for 3 days in presence of 0.003 uM acalabrutinib relative to control; settings: SU-DHL-4, 72 h, time 3 day, read-out: GI
[10] = system: SUD4; experiment: Growth inhibition of human SU-DHL-4 cells at 0.17 uM incubated for 3 days in presence of 0.17 uM acalabrutinib relative to control; settings: SU-DHL-4, 72 h, time 3 day, read-out: GI
[11] = system: SUD4; experiment: Growth inhibition of human SU-DHL-4 cells at 0.17 uM incubated for 3 days in presence of 0.033 uM acalabrutinib relative to control; settings: SU-DHL-4, 72 h, time 3 day, read-out: GI
[12] = system: OCI-Ly10; experiment: Growth inhibition of human OCILY10 cells at 0.17 uM incubated for 3 days in presence of 0.003 uM acalabrutinib relative to control; settings: OCI-Ly10, 72 h, time 3 day, read-out: GI
[13] = system: OCI-Ly10; experiment: Growth inhibition of human OCILY10 cells at 0.17 uM incubated for 3 days in presence of 0.017 uM acalabrutinib relative to control; settings: OCI-Ly10, 72 h, time 3 day, read-out: GI
[14] = system: OCI-Ly10; experiment: Growth inhibition of human OCILY10 cells at 0.17 uM incubated for 3 days in presence of 0.033 uM acalabrutinib relative to control; settings: OCI-Ly10, 72 h, time 3 day, read-out: GI
[15] = system: OCI-Ly10; experiment: Growth inhibition of human OCILY10 cells at 0.17 uM incubated for 3 days in presence of 0.17 uM acalabrutinib relative to control; settings: OCI-Ly10, 72 h, time 3 day, read-out: GI
[16] = system: OCI-Ly10; experiment: Growth inhibition of human OCILY10 cells at 0.17 uM incubated for 3 days in presence of 0.33 uM acalabrutinib relative to control; settings: OCI-Ly10, 72 h, time 3 day, read-out: GI
[17] = system: OCI-Ly10; experiment: Growth inhibition of human OCILY10 cells at 0.33 uM incubated for 3 days in presence of 0.003 uM acalabrutinib relative to control; settings: OCI-Ly10, 72 h, time 3 day, read-out: GI
[18] = system: OCI-Ly10; experiment: Growth inhibition of human OCILY10 cells at 0.33 uM incubated for 3 days in presence of 0.017 uM acalabrutinib relative to control; settings: OCI-Ly10, 72 h, time 3 day, read-out: GI
[19] = system: OCI-Ly10; experiment: Growth inhibition of human OCILY10 cells at 0.33 uM incubated for 3 days in presence of 0.033 uM acalabrutinib relative to control; settings: OCI-Ly10, 72 h, time 3 day, read-out: GI
[20] = system: OCI-Ly10; experiment: Growth inhibition of human OCILY10 cells at 1.7 uM incubated for 3 days in presence of 0.003 uM acalabrutinib relative to control; settings: OCI-Ly10, 72 h, time 3 day, read-out: GI
[21] = system: OCI-Ly10; experiment: Growth inhibition of human OCILY10 cells at 1.7 uM incubated for 3 days in presence of 0.17 uM acalabrutinib relative to control; settings: OCI-Ly10, 72 h, time 3 day, read-out: GI
[22] = system: OCI-Ly10; experiment: Growth inhibition of human OCILY10 cells at 1.7 uM incubated for 3 days in presence of 0.33 uM acalabrutinib relative to control; settings: OCI-Ly10, 72 h, time 3 day, read-out: GI
[23] = system: OCI-Ly10; experiment: Growth inhibition of human OCILY10 cells at 3.3 uM incubated for 3 days in presence of 0.003 uM acalabrutinib relative to control; settings: OCI-Ly10, 72 h, time 3 day, read-out: GI
[24] = system: OCI-Ly10; experiment: Growth inhibition of human OCILY10 cells at 3.3 uM incubated for 3 days in presence of 0.017 uM acalabrutinib relative to control; settings: OCI-Ly10, 72 h, time 3 day, read-out: GI
[25] = system: OCI-Ly10; experiment: Growth inhibition of human OCILY10 cells at 3.3 uM incubated for 3 days in presence of 0.033 uM acalabrutinib relative to control; settings: OCI-Ly10, 72 h, time 3 day, read-out: GI
[26] = system: OCI-Ly10; experiment: Growth inhibition of human OCILY10 cells at 3.3 uM incubated for 3 days in presence of 0.33 uM acalabrutinib relative to control; settings: OCI-Ly10, 72 h, time 3 day, read-out: GI
[27] = system: OCI-Ly10; experiment: Growth inhibition of human OCILY10 cells at 10 uM incubated for 3 days in presence of 0.003 uM acalabrutinib relative to control; settings: OCI-Ly10, 72 h, time 3 day, read-out: GI
[28] = system: OCI-Ly10; experiment: Growth inhibition of human OCILY10 cells at 10 uM incubated for 3 days in presence of 0.017 uM acalabrutinib relative to control; settings: OCI-Ly10, 72 h, time 3 day, read-out: GI
[29] = system: OCI-Ly10; experiment: Growth inhibition of human OCILY10 cells at 10 uM incubated for 3 days in presence of 0.033 uM acalabrutinib relative to control; settings: OCI-Ly10, 72 h, time 3 day, read-out: GI
[30] = system: OCI-Ly10; experiment: Growth inhibition of human OCILY10 cells at 10 uM incubated for 3 days in presence of 0.17 uM acalabrutinib relative to control; settings: OCI-Ly10, 72 h, time 3 day, read-out: GI
[31] = system: OCI-Ly10; experiment: Growth inhibition of human OCILY10 cells at 10 uM incubated for 3 days in presence of 0.33 uM acalabrutinib relative to control; settings: OCI-Ly10, 72 h, time 3 day, read-out: GI
[32] = system: SUD4; experiment: Growth inhibition of human SU-DHL-4 cells at 1.7 uM incubated for 3 days in presence of 0.17 uM acalabrutinib relative to control; settings: SU-DHL-4, 72 h, time 3 day, read-out: GI
[33] = system: SUD4; experiment: Growth inhibition of human SU-DHL-4 cells at 1.7 uM incubated for 3 days in presence of 0.33 uM acalabrutinib relative to control; settings: SU-DHL-4, 72 h, time 3 day, read-out: GI
[34] = system: SUD4; experiment: Growth inhibition of human SU-DHL-4 cells at 3.3 uM incubated for 3 days in presence of 0.003 uM acalabrutinib relative to control; settings: SU-DHL-4, 72 h, time 3 day, read-out: GI
[35] = system: SUD4; experiment: Growth inhibition of human SU-DHL-4 cells at 3.3 uM incubated for 3 days in presence of 0.017 uM acalabrutinib relative to control; settings: SU-DHL-4, 72 h, time 3 day, read-out: GI
[36] = system: SUD4; experiment: Growth inhibition of human SU-DHL-4 cells at 3.3 uM incubated for 3 days in presence of 0.17 uM acalabrutinib relative to control; settings: SU-DHL-4, 72 h, time 3 day, read-out: GI
[37] = system: SUD4; experiment: Growth inhibition of human SU-DHL-4 cells at 3.3 uM incubated for 3 days in presence of 0.33 uM acalabrutinib relative to control; settings: SU-DHL-4, 72 h, time 3 day, read-out: GI
[38] = system: SUD4; experiment: Growth inhibition of human SU-DHL-4 cells at 10 uM incubated for 3 days in presence of 0.017 uM acalabrutinib relative to control; settings: SU-DHL-4, 72 h, time 3 day, read-out: GI
[39] = system: SUD4; experiment: Growth inhibition of human SU-DHL-4 cells at 10 uM incubated for 3 days in presence of 0.033 uM acalabrutinib relative to control; settings: SU-DHL-4, 72 h, time 3 day, read-out: GI
[40] = system: SUD4; experiment: Growth inhibition of human SU-DHL-4 cells at 10 uM incubated for 3 days in presence of 0.17 uM acalabrutinib relative to control; settings: SU-DHL-4, 72 h, time 3 day, read-out: GI
[41] = system: SUD4; experiment: Growth inhibition of human SU-DHL-4 cells at 10 uM incubated for 3 days in presence of 0.33 uM acalabrutinib relative to control; settings: SU-DHL-4, 72 h, time 3 day, read-out: GI

## Cc1ncc(-c2nc3c(NC(C)C)nc(Nc4cnn(C5CC6(C5)CN(C)C6)c4)nc3cc2F)cn1
[1]
  inhibition of growth at 1.7 µM: 3%
[2]
  inhibition of growth at 1.7 µM: 3%
[3]
  inhibition of growth at 1.7 µM: 3%
[4]
  inhibition of growth at 0.33 µM: 6%
[5]
  inhibition of growth at 0.33 µM: 4%
[6]
  inhibition of growth at 0.33 µM: 3%
[7]
  inhibition of growth at 0.33 µM: 3%
[8]
  inhibition of growth at 0.17 µM: 6%
[9]
  inhibition of growth at 0.33 µM: 3%
[10]
  inhibition of growth at 0.17 µM: 3%
[11]
  inhibition of growth at 0.17 µM: 2%
[12]
  inhibition of growth at 0.17 µM: 29%
[13]
  inhibition of growth at 0.17 µM: 97%
[14]
  inhibition of growth at 0.17 µM: 137%
[15]
  inhibition of growth at 0.17 µM: 172%
[16]
  inhibition of growth at 0.17 µM: 173%
[17]
  inhibition of growth at 0.33 µM: 51%
[18]
  inhibition of growth at 0.33 µM: 158%
[19]
  inhibition of growth at 0.33 µM: 177%
[20]
  inhibition of growth at 1.7 µM: 170%
[21]
  inhibition of growth at 1.7 µM: 197%
[22]
  inhibition of growth at 1.7 µM: 195%
[23]
  inhibition of growth at 3.3 µM: 189%
[24]
  inhibition of growth at 3.3 µM: 196%
[25]
  inhibition of growth at 3.3 µM: 196%
[26]
  inhibition of growth at 3.3 µM: 195%
[27]
  inhibition of growth at 10 µM: 196%
[28]
  inhibition of growth at 10 µM: 197%
[29]
  inhibition of growth at 10 µM: 198%
[30]
  inhibition of growth at 10 µM: 199%
[31]
  inhibition of growth at 10 µM: 198%
[32]
  inhibition of growth at 1.7 µM: 3%
[33]
  inhibition of growth at 1.7 µM: 6%
[34]
  inhibition of growth at 3.3 µM: 4%
[35]
  inhibition of growth at 3.3 µM: 4%
[36]
  inhibition of growth at 3.3 µM: 4%
[37]
  inhibition of growth at 3.3 µM: 7%
[38]
  inhibition of growth at 10 µM: 7%
[39]
  inhibition of growth at 10 µM: 6%
[40]
  inhibition of growth at 10 µM: 7%
[41]
  inhibition of growth at 10 µM: 10%
